A short description of data set [1]: Bioavailability, comparative study in dogs (150 mg/kg). Format: in vivo. Conditions: Beagle dogs, crossover, suspension, geometric means.
A short description of data set [2]: In vitro release, USP apparatus 2 (paddle), non-sink conditions (supersaturation). In kind it is physicochemical. The settings on record: 75 rpm, 900 ml acetate buffer pH 4.5, 37° C., active ingredient dose 20 mg. As to the method: The in vitro release investigations are carried out by USP release method with apparatus 2 (paddle) at a temperature of 37° C. The speed of rotation of the stirrer is 75 rpm (revolutions per minute) in 900 ml of an acetate buffer solution of pH 4.5, which is prepared from 29.9 g of sodium acetate trihydrate and 16.6 ml of glacial acetic acid in 10 l of water.
The investigations in this connection take place under sink or non-sink conditions.
Non-sink conditions: The investigations for examining the supersaturation (increase in solubility) take place without addition of a surfactant and with a dose of 20 mg of active ingredient (I) to be released.
To illustrate the supersaturation behaviour of exemplary formulations 1 to 6 (see below), as comparison the in vitro release (non-sink conditions) of the micronized crystalline active ingredient (I) in the thermodynamically stable crystal modification I and of a rapid-release tablet formulation produced by fluidized bed granulation and comprising micronized crystalline active ingredient (I) in crystal modification I were determined.

Data set [3] in a line: Bioavailability, comparative study in rats (3 mg/kg). In kind it is in vivo. The settings on record: male Wistar rats, suspension, geometric means. As to the method: The bioavailability was investigated by administering 3 mg/kg active ingredient (I) in each case to male Wistar rats: • a) in the form of exemplary formulation 1 (suspended in water) • b) in the form of exemplary formulation 2 (suspended in water) • c) in the form of exemplary formulation 3 (suspended in water) • d) in the form of the micronized crystalline active ingredient in thermodynamically stable crystal modification I (suspended in 0.5% strength aqueous methylhydroxyethylcellulose (proprietary name: Tylose MH 300))

Data set [4] is described as follows: Solubility in water of active ingredient (I). The settings on record: 25° C., crystal modification I. In kind it is physicochemical.

Values after ≈ are worked out from the molar mass of the structure shown.

Usually Cmax stands for the peak of the concentration-time curve. Usually solubility stands for the concentration that dissolves in the medium under given conditions. Read a high solubility as much dissolved substance.

Take `O=C(NC[C@H]1CN(c2ccc(N3CCOCC3=O)cc2)C(=O)O1)c1ccc(Cl)s1` [Comparative Formulation 1.1, 5-Chloro-N-({(5S)-2-oxo-3-[4-(3-oxo-4-morpholinyl)phenyl]-1,3-oxazolidin-5-yl}methyl)-2-thiophenecarboxamide]: the “AUC (0-24)norm” value was determined as 0.081 kg·h/L in data set [1] and 0.254 kg·h/L in data set [3]. Also, the “Cmax, norm” value in data set [1] came to 0.015 kg/L; in data set [3], 0.074 kg/L. Moreover, the Cmax in data set [1] (dog, in vivo, oral) was determined as 2220 ng/mL; in data set [3] (rat, in vivo, oral), 222 ng/mL. Besides, the AUC(0-t) in data set [1] (dog, in vivo, oral, read-out: AUC (0-24)) worked out at 12200 ng·h/mL; in data set [3] (rat, in vivo, oral, read-out: AUC (0-24)) it was 762 ng·h/mL. For the same molecule, the Release in data set [2] (15 min) turned out to be 23%; in data set [2] (30 min), 34%; in data set [2] (60 min), 41%; in data set [2] (90 min), 44%.
In data set [4], `O=C(NC[C@H]1CN(c2ccc(N3CCOCC3=O)cc2)C(=O)O1)c1ccc(Cl)s1` [active ingredient (I), 5-Chloro-N-({(5S)-2-oxo-3-[4-(3-oxo-4-morpholinyl)phenyl]-1,3-oxazolidin-5-yl}methyl)-2-thiophenecarboxamide] came in with a solubility of around 7 µg/mL (≈ 16.1 µM).

Source of the values: patent publication US8586082B2, “Solid orally administerable pharmaceutical dosage forms with rapid active principle release” (Bayer Intellectual Property GmbH, priority 2005, dated 2013).
